SMILES strings stand for the structures. Activity calls are given as the source filed them. The calls are words filed in the database; no cut-off is given here.

In the first assay the target is T1, Estrogen receptor (Homo sapiens, UniProt Q92731+P03372). Nature of the assay: Displacement of [3H]estradiol from estrogen receptor in MCF-7 cell lysate; Inactive.
Conditions: not given
It is filed as cell-free. (Displacement assays read how much labelled ligand stays bound in the presence of the test substance.)
`COC(=O)c1ccc(-c2sc3ccccc3c2C(=O)c2ccc(OCCN3CCCCC3)cc2)cc1`: the Relative binding affinity entry is “inactive”. Same read-out and setting: the entry for `O=C(O)c1ccc2c(C(=O)c3ccc(OCCN4CCCCC4)cc3)c(-c3ccc(O)cc3)sc2c1` is “inactive”.

For another assay, the target named is T1, Estrogen receptor. The settings on record: mcf-7.
Description: Antagonist effect in breast tissue was assayed by inhibition of estrogen stimulated MCF-7 cell proliferation
Broadly, the IC50 is the concentration needed to halve the response being measured. A low value points to greater potency. For `CCOP(=O)(OCC)c1ccc2c(C(=O)c3ccc(OCCN4CCCCC4)cc3)c(-c3ccc(O)cc3)sc2c1`, the midpoint of inhibition, the IC50, lay at 200 nM. Still for that read-out and setting: the figure for `COC(=O)c1ccc2c(C(=O)c3ccc(OCCN4CCCCC4)cc3)c(-c3ccccc3)sc2c1` is 1000 nM; for `COC(=O)c1ccc(-c2sc3cc(O)ccc3c2C(=O)c2ccc(OCCN3CCCCC3)cc2)cc1` it is 50 nM; for `C#Cc1ccc(-c2sc3cc(O)ccc3c2C(=O)c2ccc(OCCN3CCCCC3)cc2)cc1` it is 0.8 nM.

Take `NC(=O)c1ccc(-c2sc3cc(O)ccc3c2C(=O)c2ccc(OCCN3CCCCC3)cc2)cc1`: the concentration for half-maximal inhibition (IC50) came out at 200 nM. Still for that read-out and setting: the figure for `O=C(O)c1ccc(-c2sc3cc(O)ccc3c2C(=O)c2ccc(OCCN3CCCCC3)cc2)cc1` is 325 nM; for `CC(=O)c1ccc(-c2sc3cc(O)ccc3c2C(=O)c2ccc(OCCN3CCCCC3)cc2)cc1` it is 32 nM; for `CCOC(=O)c1ccc(-c2sc3cc(O)ccc3c2C(=O)c2ccc(OCCN3CCCCC3)cc2)cc1` it is 50 nM. Same read-out and setting: the figure for `CNC(=O)c1ccc(-c2sc3cc(O)ccc3c2C(=O)c2ccc(OCCN3CCCCC3)cc2)cc1` is 40 nM; for `COC(=O)c1ccc(-c2sc3ccccc3c2C(=O)c2ccc(OCCN3CCCCC3)cc2)cc1` it is 1000 nM; for `CCOP(=O)(OCC)c1ccc(-c2sc3cc(O)ccc3c2C(=O)c2ccc(OCCN3CCCCC3)cc2)cc1` it is 210 nM. On the same count and under the same terms, the figure for `N#Cc1ccc(-c2sc3cc(O)ccc3c2C(=O)c2ccc(OCCN3CCCCC3)cc2)cc1` is 8 nM.

Consider `COC(=O)c1ccc2c(C(=O)c3ccc(OCCN4CCCCC4)cc3)c(-c3ccc(O)cc3)sc2c1`, for which inhibition was half-maximal at 30 nM (IC50). Still for that read-out and setting: the figure for `COC(=O)c1ccc(-c2sc3cc(C(=O)OC)ccc3c2C(=O)c2ccc(OCCN3CCCCC3)cc2)cc1` is 1000 nM; for `CCCCOC(=O)c1ccc2c(C(=O)c3ccc(OCCN4CCCCC4)cc3)c(-c3ccc(O)cc3)sc2c1` it is 40 nM; for `C#Cc1ccc2c(C(=O)c3ccc(OCCN4CCCCC4)cc3)c(-c3ccc(O)cc3)sc2c1` it is 20 nM. On the same count and under the same terms, the figure for `C=Cc1ccc(-c2sc3cc(O)ccc3c2C(=O)c2ccc(OCCN3CCCCC3)cc2)cc1` is 7 nM. On the same count and under the same terms, the figure for `CC(C)COC(=O)c1ccc2c(C(=O)c3ccc(OCCN4CCCCC4)cc3)c(-c3ccc(O)cc3)sc2c1` is 40 nM; for `CN(C)C(=O)c1ccc(-c2sc3cc(O)ccc3c2C(=O)c2ccc(OCCN3CCCCC3)cc2)cc1` it is 20 nM; for `CC(=O)c1ccc2c(C(=O)c3ccc(OCCN4CCCCC4)cc3)c(-c3ccc(O)cc3)sc2c1` it is 60 nM.

With `NC(=O)c1ccc2c(C(=O)c3ccc(OCCN4CCCCC4)cc3)c(-c3ccc(O)cc3)sc2c1`, the 50% inhibitory concentration (IC50) is given as 1000 nM.

(Values after ChEMBL document CHEMBL1129893 (Bioorg Med Chem Lett, 1997).)
